Data from patent US8343934B2, “Diverse lead compound autotaxin inhibitors” (University of Memphis, priority 2009, dated 2013).

Target: T1, ATX (Homo sapiens, UniProt Q13822)
T1 construct: conditioned serum-free medium (CCM) from MDA-MB-435 cells as the source of ATX; endogenous in cells; host or cells: MDA-MB-435 cells (about 10x concentrated conditioned serum-free medium)
Assay: ATX inhibition assay (FS-3 substrate)
Format: biochemical
Details: for IC50 / % ATX Acitivity (10 μM): FS-3 substrate; for % Response: preliminary screen, FS-3 hydrolysis at one hour, normalized to vehicle control, mean±S.D., same values given at 10 μM in Table 5; for % ATX Acitivity (10 μM): 10 μM compound
Method: ATX inhibition was assayed using the substrate FS-3 (Echelon Biosciences, Inc., Salt Lake City, Utah, USA). The FS-3 assay used ˜10 times concentrated conditioned serum-free medium (CCM) from MDA-MB-435 cells as the source of ATX, while CCM comprised one-third of the total volume. The final volume for FS-3 was comprised of the substrate at varying concentrations and 30 μM charcoal-stripped fatty acid free BSA (Sigma Aldrich) in assay buffer (1 mM each CaCl2 and MgCl2, 5 mM KCl, 140 mM NaCl, 50 mM Tris pH 8.0).
All assays were performed in 96-well plates with data read at 1 minute intervals by a Synergy2 system (BioTek, Winooski, Vt.). The fluorescence produced upon the hydrolysis of FS-3 was monitored using an excitation wavelength of 485 nm and an emission wavelength of 528 nm at 37° C. (Ferguson et al., 2006). […] All readings were normalized to vehicle control after subtraction of fluorescence in the absence of CCM. Data are shown as the mean±S.D. of at least three wells.

[1] = Calculated IC50 data for the 30 active compounds

| Structure (SMILES) | IC50 [1] | % Response | also measured |
| --- | --- | --- | --- |
| O=C(O)c1ccc(C(=O)NCCCN(CCCCN(CCCNC(=O)c2ccc(C(=O)O)c(O)c2O)C(=O)c2ccc(C(=O)O)c(O)c2O)C(=O)c2ccc(C(=O)O)c(O)c2O)c(O)c1O.[Na+] [compound 338310] | 7.96 µM | 24 ± 2.9% | – |
| Nc1ccc(N=Nc2ccc(-c3ccc(N=Nc4c(S(=O)(=O)O)cc5cc(S(=O)(=O)O)c(N=Nc6cccc([N+](=O)[O-])c6)c(N)c5c4O)cc3)cc2)c(N)c1.[Na+] [compound 79593] | 6.36 µM | 37 ± 2.6% | – |
| CC(C)(C)OC(=O)NC(CC(Cc1ccccc1)C(=O)O)C(=O)NC(CC(Cc1ccccc1)C(=O)O)C(=O)NC(CC(Cc1ccccc1)C(=O)O)C(=O)NCC(=O)Oc1ccc([N+](=O)[O-])cc1 (centres unmarked) [NSC 341348] | – | – | % ATX Acitivity (10 μM): 43 ± 2.8%; IC50: 2.5 µM |
| COc1nc(Nc2ccc(/C=C/c3ccc(Nc4nc(OC)nc(N(CCO)CCO)n4)cc3S(=O)(=O)[O-])c(S(=O)(=O)[O-])c2)nc(N(CCO)CCO)n1.[Na+].[Na+] [compound 306423] | – | 94 ± 3.6% | – |
| Nc1ccc2cc(S(=O)(=O)O)c(/N=N/c3ccc(-c4ccc(/N=N/c5c(S(=O)(=O)O)cc6cc(S(=O)(=O)O)cc(N)c6c5O)cc4)cc3)c(O)c2c1 [NSC 75779] | – | – | % ATX Acitivity (10 μM): 20 ± 5.7%; IC50 (Table 5): 1.26 µM |
| COc1ccccc1N=Nc1c(S(=O)(=O)O)cc2cc(NC(=O)Nc3ccc4c(O)c(N=Nc5c(N)ccc6cc(S(=O)(=O)O)ccc56)c(S(=O)(=O)O)cc4c3)ccc2c1O [compound 45622] | 11.6 µM | 16 ± 3.1% | – |
| Cc1cccc(N=Nc2c(S(=O)(=O)O)cc3cc(NC(=O)Nc4ccc5c(O)c(N=Nc6ccc7cc(S(=O)(=O)O)ccc7c6)c(S(=O)(=O)O)cc5c4)ccc3c2O)c1.[Na+] [compound 65574] | 12 µM | 20 ± 3.7% | – |
| CCCCCCCCCCCCCCCCOc1ccc(S(=O)(=O)N/N=c2/sc3ccc(S(=O)(=O)O)cc3n2C)cc1C(=O)O [compound 270069] | – | 97 ± 2.4% | – |
| Nc1ccc(N=Nc2ccc(-c3ccc(N=Nc4c(S(=O)(=O)O)cc5cc(S(=O)(=O)O)c(N=Nc6ccc([N+](=O)[O-])cc6)c(N)c5c4O)cc3)cc2)c(N)c1.[Na+] [compound 65848] | 15.2 µM | 48 ± 4.8% | – |
| O=C1C(c2[nH]c3ccc(S(=O)(=O)O)cc3c2O)=Nc2ccc(S(=O)(=O)O)cc21 [compound 8646] | – | 88 ± 9.2% | – |
| COc1ccccc1N=Nc1c(S(=O)(=O)O)cc2cc(S(=O)(=O)O)c(N=Nc3ccc([N+](=O)[O-])cc3)c(N)c2c1O.[Na+] [compound 65829] | – | 71 ± 4.0% | – |
| COc1cc(N=Nc2cc(S(=O)(=O)[O-])cc3cc(S(=O)(=O)[O-])cc(O)c23)c(C)cc1N=Nc1c(S(=O)(=O)[O-])cc2cc(Nc3ccccc3)ccc2c1O.[Na+].[Na+].[Na+] [compound 47755] | 37.6 µM | 47 ± 3.7% | – |
| CCOc1cc(-c2ccc(N=Nc3c(S(=O)(=O)O)cc4ccc(N)cc4c3O)cc2)ccc1N=Nc1c(S(=O)(=O)O)cc2ccc(N)cc2c1O.[Na+] [compound 44654] | – | 61 ± 4.3% | – |
| Nc1ccc2cc(S(=O)(=O)O)cc(O)c2c1N=Nc1ccc(-c2ccc(N=Nc3c(S(=O)(=O)O)cc4cc(S(=O)(=O)O)c(N=Nc5ccc([N+](=O)[O-])cc5)c(N)c4c3O)cc2)cc1 [compound 65855] | 17.4 µM | 43 ± 3.8% | – |
| O=C(Nc1ccc2c(O)c(N=Nc3ccccc3)c(S(=O)(=O)O)cc2c1)Nc1ccc2c(O)c(N=Nc3ccc4cc(S(=O)(=O)O)ccc4c3)c(S(=O)(=O)O)cc2c1.[H-].[Na+] [compound 65573] | 19.1 µM | 39 ± 3.8% | – |
| O=C(NC(CSSCC(NC(=O)c1ccc([N+](=O)[O-])cc1)C(=O)O)C(=O)O)c1ccc([N+](=O)[O-])cc1 (centres unmarked) [compound 2532] | – | 95 ± 5.7% | – |
| O=C(Nc1ccc2cc(S(=O)(=O)O)cc(O)c2c1)Nc1ccc2cc(S(=O)(=O)O)cc(O)c2c1 [compound 37204] | – | 106 ± 60.5% | – |
| Cc1ccc(C(=O)Nc2ccc(S(=O)(=O)O)c3cc(S(=O)(=O)O)cc(S(=O)(=O)O)c23)cc1NC(=O)c1cccc(NC(=O)Nc2cccc(C(=O)Nc3cc(C(=O)Nc4ccc(S(=O)(=O)O)c5cc(S(=O)(=O)O)cc(S(=O)(=O)O)c45)ccc3C)c2)c1.Cc1ccc(C)c2c1c(NCCCCCCNc1cc(C)[n+](C)c3c(C)ccc(C)c13)cc(C)[n+]2C [compound 32275] | – | 94 ± 6.5% | – |
| COc1ccc(/C=N\NC(=O)N/N=C/c2ccc(OC)c(S(=O)(=O)O)c2)cc1S(=O)(=O)O.[Na+] [compound 48775] | – | 98 ± 5.5% | – |
| Nc1ccc(N=Nc2ccc(-c3ccc(N=Nc4c(S(=O)(=O)O)cc5cc(S(=O)(=O)O)c(N=Nc6ccc([N+](=O)[O-])cc6)c(N)c5c4O)cc3)cc2)c2cc(S(=O)(=O)O)ccc12.Nc1ccc(N=Nc2ccc(-c3ccc(N=Nc4c(S(=O)(=O)O)cc5cc(S(=O)(=O)O)c(N=Nc6ccc([N+](=O)[O-])cc6)c(N)c5c4O)cc3)cc2)c2ccc(S(=O)(=O)O)cc12 [compound 77520] | 4.07 µM | 32 ± 2.7% | – |

| Structure (SMILES) | IC50 [1] | % Response | also measured |
| --- | --- | --- | --- |
| COc1ccc(/C=N/NC(=O)C(=O)N/N=C/c2ccc(OC)c(S(=O)(=O)O)c2)cc1S(=O)(=O)O [compound 56207] | – | 100 ± 4.2% | – |
| Nc1ccc(C(=O)Nc2ccc(C(=O)Nc3ccc4c(O)cc(S(=O)(=O)O)cc4c3)cc2)cc1 [compound 1741] | – | 60 ± 4.6% | – |
| Nc1ccc(C(=O)Nc2ccc(NC(=O)Nc3ccc(NC(=O)c4ccc(N)cc4)c(S(=O)(=O)O)c3)cc2S(=O)(=O)O)cc1.[Na+] [compound 71960] | – | 88 ± 5.3% | – |
| Nc1ccc(N=Nc2ccc(-c3ccc(N=Nc4c(S(=O)(=O)[O-])cc5cc(S(=O)(=O)[O-])c(N=Nc6ccc([N+](=O)[O-])cc6)c(N)c5c4O)cc3)cc2)c2cc(S(=O)(=O)[O-])ccc12.[Na+].[Na+].[Na+] [compound 79743] | 8.33 µM | 39 ± 2.7% | – |
| COc1ccc(C(=O)Nc2ccc(/C=C/c3ccc(NC(=O)c4ccc(OC)cc4)cc3S(=O)(=O)O)c(S(=O)(=O)O)c2)cc1.[Na+] [compound 12858] | – | 98 ± 7.4% | – |
| O=C(O)c1ccccc1N=N/C(=N\Nc1cc(S(=O)(=O)O)ccc1O)c1ccccc1 [compound 5359] | – | 94 ± 2.6% | – |
| Nc1c(N=Nc2ccc([N+](=O)[O-])cc2)c(S(=O)(=O)[O-])cc2cc(S(=O)(=O)[O-])c(N=Nc3ccc(-c4ccc(N=Nc5ccc(O)c(C(=O)[O-])c5)cc4)cc3)c(O)c12.[Na+].[Na+].[Na+] [compound 8681] | – | 55 ± 5.5% | – |
| O=C(Nc1ccc(Sc2ccc(N=Nc3c(O)c(S(=O)(=O)O)cc4cc(S(=O)(=O)O)ccc34)cc2)cc1)c1ccc(N=Nc2c(O)c(S(=O)(=O)O)cc3cc(S(=O)(=O)O)ccc23)cc1 [compound 65860] | – | 66 ± 4.4% | – |
| CC(C)(C)OC(=O)NC(CC(Cc1ccccc1)C(=O)O)C(=O)NC(CC(Cc1ccccc1)C(=O)O)C(=O)NC(CC(Cc1ccccc1)C(=O)O)C(=O)NCC(=O)Oc1ccc([N+](=O)[O-])cc1 (centres unmarked) [compound 341348] | 2.5 µM | 43 ± 2.8% | – |
| O=S(=O)(O)c1cc(O)c2ccc(Nc3ccc4c(O)cc(S(=O)(=O)O)cc4c3)cc2c1 [compound 37203] | – | 92 ± 9.1% | – |
| O=C(O)c1ccc2c(c1Nc1ccc(-c3ccc(Nc4c(C(=O)O)ccc5c4C(=O)c4ccccc4C5=O)cc3)cc1)C(=O)c1ccccc1C2=O [compound 7581] | – | 70 ± 4.8% | – |
| O=C(Nc1cccc(C(=O)Nc2ccc3cc(S(=O)(=O)O)cc(S(=O)(=O)O)c3c2)c1)Nc1cccc(C(=O)Nc2ccc3cc(S(=O)(=O)O)cc(S(=O)(=O)O)c3c2)c1.[Na+] [compound 12856] | – | 71 ± 5.4% | – |
| COc1cc(-c2ccc(N=Nc3c(S(=O)(=O)O)cc4cc(S(=O)(=O)O)c(N=Nc5ccc([N+](=O)[O-])cc5)c(N)c4c3O)c(OC)c2)ccc1N=Nc1ccc(N)cc1C.[Na+] [compound 79737] | – | 62 ± 2.8% | – |
| Nc1c(N=Nc2ccc([N+](=O)[O-])cc2)c(S(=O)(=O)O)cc2cc(S(=O)(=O)O)c(N=Nc3ccccc3)c(O)c12 [compound 7820] | – | 110 ± 5.7% | – |
| O=C(Nc1ccc2c(O)c(N=Nc3ccccc3)c(S(=O)(=O)[O-])cc2c1)Nc1ccc2c(O)c(N=Nc3ccccc3)c(S(=O)(=O)[O-])cc2c1.[Na+].[Na+] [compound 47749] | – | 103 ± 58.1% | – |
| O=C(Nc1ccc(C(=O)Nc2ccc3c(O)cc(S(=O)(=O)O)cc3c2)cc1)c1ccccc1.[Na+] [compound 37215] | – | 79 ± 3.7% | – |
| Nc1ccc(N=Nc2ccc(-c3ccc(N=Nc4c(S(=O)(=O)[O-])cc5cc(S(=O)(=O)[O-])c(N=Nc6cccc([N+](=O)[O-])c6)c(N)c5c4O)cc3)cc2)c2cc(S(=O)(=O)[O-])ccc12.[Na+].[Na+].[Na+] [compound 79742] | 7.04 µM | 36 ± 2.5% | – |
| CCOc1ccc(N=c2ccc3c(-c4c(Cl)ccc(Cl)c4C(=O)O)c4ccc(Nc5ccc(OCC)cc5S(=O)(=O)O)cc4oc-3c2)cc1.[Na+] [compound 8682] | – | 52 ± 7.7% | – |
| CC(=O)Nc1ccc(N=Nc2c(S(=O)(=O)O)cc3cc(NC(=O)Nc4ccc5c(O)c(N=Nc6ccccc6)c(S(=O)(=O)O)cc5c4)ccc3c2O)cc1.[Na+] [compound 47762] | – | 83 ± 5.5% | – |
